The supplement of paper PMC3974653
Structures can show the parent of a compound that is named as a salt.

Tested on: MTT (mouse pheochromocytoma)
Assay: IC50 of cell viability (ATP content)
Settings: (24 or 48 h)
Method in brief: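 After overnight culture at 37°C, 5% CO2 in white 1536-well plates, MTT mouse pheochromocytoma cells were given 23 nl of library compound in DMSO by pintool across 8 concentrations, spanning final 0.5 nM to 46 µM. Following 24 or 48 hrs, CellTiter-Glo luminescence was read after 15 minutes and normalised against positive-control (100%) and DMSO (0%) wells. A four-parameter logistic model provided the IC50.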

SMILES	IC50 of cell viability
CO[C@@H]1[C@@H]([C@H](C)[C@@H]2O[C@@]3(CC[C@@](C)([C@H]4CC[C@@](C)([C@H]5O[C@H]([C@H]6O[C@](C)(O)[C@H](C)C[C@@H]6C)C[C@H]5O[C@H]5C[C@@H](OC)[C@H](OC)[C@@H](C)O5)O4)O3)C[C@@H](O)[C@@H]2C)O[C@@](O)(CC(=O)[O-])[C@H](C)[C@H]1OC [Maduramicin ammonium]	> 46 µM
O=C(O)COc1ccc(C(=O)c2cccs2)c(Cl)c1Cl [Ticrynafen]	> 46 µM
C#C[C@]1(O)CC[C@H]2[C@H]3[C@H](CC[C@@]21C)C1=C(CC(=O)CC1)C[C@@H]3C [TIBOLONE]	> 46 µM
CCOc1ccccc1C(N)=O [2-Ethoxybenzamide (Ethenzamide)]	> 46 µM
COc1ccc(-c2nc3ccc(C4=C(C)CC(=O)NN4)cc3[nH]2)cc1 [PIMOBENDAN]	> 46 µM
O=C(O)/C=C\c1ccc(Cn2ccnc2)cc1 [Ozagrel hydrochloride]	> 46 µM
COc1cc(C(=O)NC2CCCNC2)cc(OC)c1OC (centres undefined) [TROXIPIDE]	> 46 µM
CCOC(=O)\C1=C(/C)N\C(=C(/C1C2=CC=CC(=C2Cl)Cl)C(=O)OC)C (centres undefined) [Felodipine]	> 46 µM
CN(C)CCOC(c1ccccc1)c1ccccc1 [DIPHENHYDRAMINE]	> 46 µM
CC1=C(C(=O)N[C@H]2[C@@H]3SC(C)(C)[C@H]([N@@]3C2=O)C(O)=O)C(=NO1)C4=C(Cl)C=CC=C4F [Floxacillin]	> 46 µM
CCN(CC)CC(=O)Nc1c(C)cccc1C [LIDOCAINE]	> 46 µM
C[C@H]1CNCCc2ccc(Cl)cc21 [Lorcaserin]	> 46 µM
FC1(F)C(F)(F)C(F)(F)C2(F)C(F)(F)C(F)(F)C(F)(F)C(F)(F)C2(F)C1(F)F (centres undefined) [PERFLUNAFENUM]	> 46 µM
CC(=O)N(C[C@@H](C)C(=O)O)c1c(I)cc(I)c(N)c1I [Iocetamic acid]	> 46 µM
CN(C)C/C=C(/c1ccc(Br)cc1)c1cccnc1.Cl.Cl [Zimelidine dihydrochloride]	> 46 µM
O=C1c2ccccc2C(=O)C1c1ccccc1 [Phenindione]	> 46 µM
COC(=O)\C1=C(/C)N\C(=C(/[C@H]1C2=CC=CC3=NON=C23)C(=O)OC(C)C)C [Isradipine]	> 46 µM
Cc1ccccc1N1C(=O)c2cc(N)ccc2N/C1=C\F [AFLOQUALONE]	> 46 µM
CCNC(=O)N1CCN(CCCC(c2ccc(F)cc2)c2ccc(F)cc2)CC1.Cl [Amperozide hydrochloride]	> 46 µM
Nc1nnnn1-c1ccccc1 [Fenamol]	> 46 µM
N=C(N)N1CCc2ccccc2C1 [Debrisoquin sulfate]	> 46 µM
CN(C)CCCN1c2ccccc2Sc2ccccc21 [Promazine hydrochloride]	> 46 µM
CN1CCN(CC1)C2=C(F)C=C3C(=O)\C(=C/N4CCSC2=C34)C(O)=O [RUFLOXACINUM]	> 46 µM
CN1CCN(CCCN2c3ccccc3Sc3ccccc32)CC1 [Perazine]	> 46 µM
c1ccc2c(c1)Sc1ccccc1N2CC1CN2CCC1CC2 (centres undefined) [Mequitazine]	> 46 µM

SMILES	IC50 of cell viability
Clc1ccc(Nc2nnc(Cc3ccncc3)c3ccccc23)cc1 [VATALANIBUM]	> 46 µM
Cc1cc(C)nc(N[S+](=O)([O-])c2ccc(N)cc2)n1 [Sulfamethazine]	> 46 µM
NC(CO)(CO)CO.O=C(c1ccccc1)c1ccc2n1CC[C@H]2C(=O)O [Ketorolac tromethamine]	> 46 µM
Cl.O=C(CCCN1CCC(O)(c2cccc(C(F)(F)F)c2)CC1)c1ccc(F)cc1 [Trifluperidol hydrochloride]	> 46 µM
Nc1nc(N)nc(NC2CC2)n1 [CYROMAZINUM]	> 46 µM
C1C\N=C(\CN(CC2=CC=CC=C2)C3=CC=CC=C3)N1 [Antazoline hydrochloride]	> 46 µM
CCCCCCCCCCCCCC[N+](C)(C)Cc1ccccc1.O.[Cl-] [BENZALKONIUM CHLORIDE]	> 46 µM
CN1CCC[C@@H]1c1cccnc1 [(+)-NICOTINE]	> 46 µM
CO/C=C(/C(=O)OC)c1ccccc1Oc1cc(Oc2ccccc2C#N)ncn1 [Azoxystrobin]	> 46 µM
CN[S+](=O)([O-])CCc1ccc2[nH]cc(C3CCN(C)CC3)c2c1 [Naratriptan Hydrochloride]	> 46 µM
Nc1ccn([C@@H]2CS[C@H](CO)O2)c(=O)n1 [lamivudine]	> 46 µM
Oc1ccccc1/C=N/Cc1ccccc1 [Norletimol]	> 46 µM
CC(C(=O)O)c1ccc(/C=C2\CCCCC2=O)cc1 (centres undefined) [PELUBIPROFEN]	> 46 µM
O=C(O)C1/C(=C/CO)OC2CC(=O)N21.[Li] (centres undefined) [CLAVULANATE LITHIUM]	> 46 µM
N[S+](=O)([O-])c1ccc(C(=O)O)cc1 [CARZENIDUM]	> 46 µM
CC1C2CCC3C4C\C=C/5CC(CC[C@@]5(C)C4CC[C@]23CN1C)N(C)C (some centres undefined) [CONESSINE]	> 46 µM
O=C(O)Cc1ccc(CCN[S+](=O)([O-])c2ccc(Cl)cc2)cc1 [DALTROBANUM]	> 46 µM
O=C(O)CN(CCN(CC(=O)O)CC(=O)O)CCN(CC(=O)O)CC(=O)O [Pentetic acid]	> 46 µM
C=C1CCC2[C@](C)(CO)C(O)CC[C@]2(C)C1C/C=C1/C(=O)OCC1O (some centres undefined) [ANDROGRAPHOLIDE]	> 46 µM
C[C@H]1CC[C@]2(OC1)O[C@@H]1C[C@@H]3[C@H]4CC[C@H]5C[C@@H](O)CC[C@]5(C)[C@@H]4CC(=O)[C@@]3(C)[C@H]1[C@@H]2C [Hecogenin]	> 46 µM
C[S+](=O)([O-])Nc1ccc([N+](=O)[O-])cc1Oc1ccccc1 [Nimesulide]	> 46 µM
CN1[C@@H]2CCC[C@@H]1CC(NC(=O)c1nn(C)c3ccccc13)C2 (some centres undefined) [Granisetron Hydrochloride]	> 46 µM
Cc1nc(N[S+](=O)([O-])c2ccc(N)cc2)nc(C)c1Br [SULFABROMOMETHAZINE SODIUM]	> 46 µM
NC/1=N/C2=C([NH]C=N2)C(=S)N1 [THIOGUANINE]	> 46 µM
NCc1ccc([S+](N)(=O)[O-])cc1 [Mafenide hydrochloride]	> 46 µM

SMILES	IC50 of cell viability
CCCCCCCC/C=C\CCCCCCCCN [DECTAFLURUM]	> 46 µM
O=c1[nH]c(=O)n(C2C[C@H](O)[C@@H](CO)O2)cc1C(F)(F)F (some centres undefined) [Trifluridine]	> 46 µM
OC[C@@H]1O[C@](CO)(O[C@H]2O[C@H](CO)[C@@H](O)[C@H](O)[C@H]2O)[C@H](O)[C@H]1O [INULIN (HYDROXYMETHYL, C-14)]	> 46 µM
CC(N/C(=N\C#N)Nc1ccncc1)C(C)(C)C (centres undefined) [PINACIDIL]	> 46 µM
O=[N+]([O-])c1c(Cl)cccc1-c1c[nH]cc1Cl [PYRROLNITRIN]	> 46 µM
COc1ccc2c(c1OC)C(=O)O[C@H]2[C@H]1c2c(cc3c(c2OC)OCO3)CCN1C [Noscapine]	> 46 µM
Cc1c(O)cccc1C(=O)N[C@@H](CSc1ccccc1)[C@H](O)CN1C[C@H]2CCCC[C@H]2C[C@H]1C(=O)NC(C)(C)C [Nelfinavir Mesylate]	> 46 µM
COc1cnc(N[S+](=O)([O-])c2ccc(N)cc2)nc1 [Sulfameter]	> 46 µM
CC(=O)Oc1cccc(C(=O)O)c1OC(C)=O [DIPYROCETYL]	> 46 µM
COc1cc(/C=C/C(=O)O[C@H]2CC[C@]34C[C@]35CC[C@]3(C)[C@@H]([C@H](C)CCC=C(C)C)CC[C@@]3(C)C5CCC4C2(C)C)ccc1O (some centres undefined) [GAMMA ORYZANOL]	> 46 µM
CCOC(=O)C(C)(C)Oc1ccc(Cl)cc1 [Clofibrate]	> 46 µM
O=C(O)CCCCCCCC(=O)O [Nonanedioic acid]	> 46 µM
CCC(Oc1ccccc1)C(=O)NC1C(=O)N2C1SC(C)(C)C2C(=O)[O-] (centres undefined) [Propicillin]	> 46 µM
O=[N+]([O-])c1ccc([As](=O)(O)O)cc1 [NITARSONE]	> 46 µM
CCCCC(CC)COC(=O)C(C#N)=C(c1ccccc1)c1ccccc1 (centres undefined) [Octocrylene]	> 46 µM
OC(CN1CCC(Cc2ccc(F)cc2)CC1)c1ccc(Cl)cc1 (centres undefined) [Eliprodil]	> 46 µM
NC(=O)N[C@@H](CCC(=O)O)C(=O)O [N-CARBAMYL-L-GLUTAMIC ACID]	> 46 µM
CC(=O)Nc1cc([As](=O)(O)O)ccc1O [ACETARSOL]	> 46 µM
CC(C)=CC1C(C(=O)OCN2C(=O)\C3=C(\CCCC3)C2=O)C1(C)C (centres undefined) [TETRAMETHRINUM]	> 46 µM
CC(CN1c2ccccc2Sc2ccccc21)N(C)C (centres undefined) [PROMETHAZINE]	> 46 µM
CCN(CC)CCN1C(=O)\C(=N/C2=CC=CC=C12)CC3=CC=C(OC)C=C3 [Caroverine hydrochloride]	> 46 µM
COc1cc(O)c(C(=O)c2ccccc2)cc1[S+](=O)([O-])O [Sulisobenzone]	> 46 µM
COc1cc(C[C@H](C)N)c(OC)cc1C [(+)-2,5-Dimethoxy-4-methylamphetamine]	> 46 µM
O\C1=C(/C2CCC(CC2)C3=CC=C(Cl)C=C3)C(=O)C4=C(C=CC=C4)C1=O (centres undefined) [Atovaquone]	> 46 µM
